Counter-ions that a name gives are not always drawn. Like-named read-outs stand apart in the source and are kept apart here.
Columns and labels:
[1] = tested on: SW620 human colon cancer cells; assay: SW620 Cell Viability Assay; format: cell-based; conditions: Homo sapiens, SW-620, 96 h, read-out: Cellular EC50 (μM) SW620
Protocol: Some cells (S—) were allowed to attach for 24 hrs, serum starved for 48 hrs, and then followed with drug treatments Test Compound Solutions were Prepared in Regular Corresponding Media Supplemented with Serum 2. […] Viability Assay: This assay was performed as follows: • Transfer 50 μL of test compound solution per well from the test compound plate onto the cell plate prepared in Step #1. • Mix the plate with treated cells by pipetting up and down three times with 200 μL multi-channel pipette. • Incubate the cells in 5% CO2 incubator @ 37° C. for 4 days. • Run the CellTiter-Glo™ Luminescent Cell Viability Assay.

Human DYRK1B = target: T1, Human DYRK1B (Homo sapiens, UniProt Q9Y463); assay: DYRK1B Kinase TR-FRET (IMAP-Tb) Assay; format: biochemical; conditions: TR-FRET (IMAP-Tb), ATP 70 μM, 37° C. 60 minutes
T1 construct: purchased Invitrogen PR8350B (former PV4649)

Human DYRK1A = target: T2, Human DYRK1A (Homo sapiens, UniProt Q13627); assay: DYRK1A Kinase TR-FRET (IMAP-Tb) Assay; format: biochemical; conditions: TR-FRET (IMAP-Tb); ATP 70 μM; 37° C. 60 minutes; read-out: Enzyme IC50 (μM) DYRK1A
T2 construct: purchased Invitrogen PV3997
Procedure, shortened: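 Recombinant human DYRK1A phosphorylated fluorescent substrate peptide (1.0 μM) with ATP in 10 mM HEPES pH 7.0, 50 mM NaCl, 5 mM MgCl2, 1 mM DTT, 1 mM NaVO4, 0.02% BSA for 60 min at 37 °C. Phosphopeptide detected by IMAP terbium TR-FRET; IC50 reported.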

[2] = CellTiter-Glo, 4 days incubation
[3] = read-out: Enzyme IC50 (μM) DYRK1B

T1 sequence (Q9Y463 whole entry): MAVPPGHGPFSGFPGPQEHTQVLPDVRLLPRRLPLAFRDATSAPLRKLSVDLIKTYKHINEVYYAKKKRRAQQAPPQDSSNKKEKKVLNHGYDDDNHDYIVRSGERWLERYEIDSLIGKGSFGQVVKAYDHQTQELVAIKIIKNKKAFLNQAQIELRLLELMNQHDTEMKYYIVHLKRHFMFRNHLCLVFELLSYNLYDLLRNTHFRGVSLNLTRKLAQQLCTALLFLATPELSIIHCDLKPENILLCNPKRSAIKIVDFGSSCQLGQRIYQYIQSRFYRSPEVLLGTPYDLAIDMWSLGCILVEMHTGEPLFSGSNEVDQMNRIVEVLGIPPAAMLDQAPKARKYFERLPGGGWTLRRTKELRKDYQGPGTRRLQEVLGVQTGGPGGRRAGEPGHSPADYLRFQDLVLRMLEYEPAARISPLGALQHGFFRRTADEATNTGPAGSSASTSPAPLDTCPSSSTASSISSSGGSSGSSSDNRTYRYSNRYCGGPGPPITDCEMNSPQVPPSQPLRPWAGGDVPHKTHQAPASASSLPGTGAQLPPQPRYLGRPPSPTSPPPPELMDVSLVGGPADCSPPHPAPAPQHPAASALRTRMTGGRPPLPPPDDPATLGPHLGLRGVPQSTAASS

SMILES | EC50 [1, 2] [µM] | IC50 (Human DYRK1B; [3]) [µM] | IC50 (Human DYRK1A) [µM] | EC50 [1] [µM] | IC50 (Human DYRK1B; Enzyme IC50 (μM) DYRK1B) [µM]
COC(=O)c1ccc(Cl)c(NC(=O)c2cc3cnc(N4CCN(C)CC4)nc3[nH]c2=O)c1 [Example 35, 4-Chloro-3-{[2-(4-methyl-piperazin-1-yl)-7-oxo-7,8-dihydro-pyrido[2,3-d]pyrimidine-6-carbonyl]amino}-benzoic acid methyl ester] | 7.05 | 0.031 | 0.0046 | – | –
COC(=O)c1ccc(Cl)c(NC(=O)c2cc3cnc(NCC(O)CO)nc3[nH]c2=O)c1 (centres unmarked) [Example 38, 4-Chloro-3-{[2-(2,3-dihydroxy-propylamino)-7-oxo-7,8-dihydro-pyrido[2,3-d]pyrimidine-6-carbonyl]amino}-benzoic acid methyl ester] | > 100 | 0.08 | 0.0385 | – | –
COC(=O)c1ccc(Cl)c(NC(=O)c2cc3cnc(N(CCO)CCO)nc3[nH]c2=O)c1 [Example 39, 3-({2-[Bis-(2-hydroxy-ethyl)-amino]-7-oxo-7,8-dihydro-pyrido[2,3-d]pyrimidine-6-carbonyl}-amino)-4-chloro-benzoic acid methyl ester] | 2.29 | 0.0248 | 0.0128 | – | –
COc1ncc2cc(C(=O)Nc3cc(C(=O)NCc4cccc(Cl)c4)ccc3Cl)c(=O)[nH]c2n1 [Example 54, 2-Methoxy-7-oxo-7,8-dihydro-pyrido[2,3-d]pyrimidine-6-carboxylic acid [2-chloro-5-(3-chloro-benzylcarbamoyl)-phenyl]-amide] | 1.93 | 0.0677 | 0.0215 | – | –
COc1ncc2cc(C(=O)Nc3cc(C(=O)NCCc4ccccc4)ccc3Cl)c(=O)[nH]c2n1 [Example 70, 2-Methoxy-7-oxo-7,8-dihydro-pyrido[2,3-d]pyrimidine-6-carboxylic acid (2-chloro-5-phenethylcarbamoyl-phenyl)-amide] | 2.3 | 0.204 | 0.352 | – | –
CSc1ncc2cc(C(=O)Nc3cc(C(=O)NCc4cccc(Cl)c4)ccc3Cl)c(=O)[nH]c2n1 [Example 74, 2-Methylsulfanyl-7-oxo-7,8-dihydro-pyrido[2,3-d]pyrimidine-6-carboxylic acid [2-chloro-5-(3-chloro-benzylcarbamoyl)-phenyl]-amide] | 1.07 | 0.0553 | 0.0256 | – | –
CN1CCN(c2ncc3cc(C(=O)Nc4cc(C(=O)NCc5cccc(Cl)c5)ccc4Cl)c(=O)[nH]c3n2)CC1 [Example 75, 2-(4-Methyl-piperazin-1-yl)-7-oxo-7,8-dihydro-pyrido[2,3-d]pyrimidine-6-carboxylic acid [2-chloro-5-(3-chloro-benzylcarbamoyl)-phenyl]-amide] | 0.563 | 0.103 | 0.0211 | – | –
COc1ncc2cc(C(=O)Nc3cc(C(=O)NC(CCN)c4ccccc4)ccc3Cl)c(=O)[nH]c2n1 (centres unmarked) [Example 76, 2-Methoxy-7-oxo-7,8-dihydro-pyrido[2,3-d]pyrimidine-6-carboxylic acid [5-(3-amino-1-phenyl-propylcarbamoyl)-2-chloro-phenyl]-amide] | – | 0.0128 | – | 0.657 | –
CNC(=O)c1ccc(Cl)c(NC(=O)c2cc3cnc(OC)nc3[nH]c2=O)c1 [Example 78, 2-Methoxy-7-oxo-7,8-dihydro-pyrido[2,3-d]pyrimidine-6-carboxylic acid (2-chloro-5-methylcarbamoyl-phenyl)-amide] | – | – | – | 2.52 | 0.248
O=C(NCc1cccc(Cl)c1)c1ccc(Cl)c(NC(=O)c2cc3cnc(OCCCN4CCOCC4)nc3[nH]c2=O)c1 [Example 80, 2-(3-Morpholin-4-yl-propoxy)-7-oxo-7,8-dihydro-pyrido[2,3-d]pyrimidine-6-carboxylic acid [2-chloro-5-(3-chloro-benzylcarbamoyl)-phenyl]-amide] | 0.325 | 0.231 | 0.0046 | – | –
O=C(NCc1cccc(Cl)c1)c1ccc(Cl)c(NC(=O)c2cc3cnc(OCCN4CCOCC4)nc3[nH]c2=O)c1 [Example 81, 2-(2-Morpholin-4-yl-ethoxy)-7-oxo-7,8-dihydro-pyrido[2,3-d]pyrimidine-6-carboxylic acid [2-chloro-5-(3-chloro-benzylcarbamoyl)-phenyl]-amide] | 0.651 | 0.128 | 0.0313 | – | –
COc1ncc2cc(C(=O)Nc3cc(C(=O)NC(CCN)c4cccc(Cl)c4)ccc3Cl)c(=O)[nH]c2n1 (centres unmarked) [Example 84, 2-Methoxy-7-oxo-7,8-dihydro-pyrido[2,3-d]pyrimidine-6-carboxylic acid {5-[3-amino-1-(3-chloro-phenyl)-propylcarbamoyl]-2-chloro-phenyl}-amide] | – | – | – | 0.235 | 0.0108
COc1ncc2cc(C(=O)Nc3cc(C(=O)NC(CN)c4cccc(Cl)c4)ccc3Cl)c(=O)[nH]c2n1 (centres unmarked) [Example 85, 2-Methoxy-7-oxo-7,8-dihydro-pyrido[2,3-d]pyrimidine-6-carboxylic acid {5-[2-amino-1-(3-chloro-phenyl)-ethylcarbamoyl]-2-chloro-phenyl}-amide] | 0.524 | 0.029 | 0.03 | – | –
COc1ncc2cc(C(=O)Nc3cc(C(N)=O)ccc3Cl)c(=O)[nH]c2n1 [Example 88, 2-Methoxy-7-oxo-7,8-dihydro-pyrido[2,3-d]pyrimidine-6-carboxylic acid (5-carbamoyl-2-chloro-phenyl)-amide] | – | – | – | > 10 | 0.0749
COc1ncc2cc(C(=O)Nc3cc(C(=O)NC(CCN(C)C)c4cccc(Cl)c4)ccc3Cl)c(=O)[nH]c2n1 (centres unmarked) [Example 96, 2-Methoxy-7-oxo-7,8-dihydro-pyrido[2,3-d]pyrimidine-6-carboxylic acid {2-chloro-5-[1-(3-chloro-phenyl)-3-dimethylamino-propylcarbamoyl]-phenyl}-amide] | – | 0.233 | – | 1.97 | –
CN1CCN(CCCNc2ncc3cc(C(=O)Nc4cc(C(=O)NC(CCN)c5ccccc5)ccc4Cl)c(=O)[nH]c3n2)CC1 (centres unmarked) [Example 121, N-(5-(3-Amino-1-phenylpropylcarbamoyl)-2-chlorophenyl)-2-(3-(4-methylpiperazin-1-yl)propylamino)-7-oxo-7,8-dihydropyrido[2,3-d]pyrimidine-6-carboxamide hydrochloride] | – | – | – | 0.157 | 0.0137
CN1CCN(CCNc2ncc3cc(C(=O)Nc4cc(C(=O)NC(CCN)c5ccccc5)ccc4Cl)c(=O)[nH]c3n2)CC1 (centres unmarked) [Example 132, N-(5-(3-Amino-1-phenylpropylcarbamoyl)-2-chlorophenyl)-2-(2-(4-methylpiperazin-1-yl)ethylamino)-7-oxo-7,8-dihydropyrido[2,3-d]pyrimidine-6-carboxamide hydrochloride] | – | – | – | 0.228 | 0.0306
COc1ncc2cc(C(=O)Nc3cc(C(=O)N[C@H](CN)c4ccccc4)ccc3Cl)c(=O)[nH]c2n1 [Example 133, (S)—N-(5-(2-Amino-1-phenylethylcarbamoyl)-2-chlorophenyl)-2-methoxy-7-oxo-7,8-dihydropyrido[2,3-d]pyrimidine-6-carboxamide] | – | 0.0365 | – | 0.738 | –
NCCC(NC(=O)c1ccc(Cl)c(NC(=O)c2cc3cnc(N4CCC(N)CC4)nc3[nH]c2=O)c1)c1ccccc1 (centres unmarked) [Example 137, N-(5-(3-Amino-1-phenylpropylcarbamoyl)-2-chlorophenyl)-2-(4-aminopiperidin-1-yl)-7-oxo-7,8-dihydropyrido[2,3-d]pyrimidine-6-carboxamide hydrochloride] | – | – | – | 0.659 | 0.0258
COc1ncc2cc(C(=O)Nc3cc(C(=O)NCCCN)ccc3Cl)c(=O)[nH]c2n1 [Example 164, N-(5-(3-Aminopropylcarbamoyl)-2-chlorophenyl)-2-methoxy-7-oxo-7,8-dihydropyrido[2,3-d]pyrimidine-6-carboxamide] | – | 0.774 | – | > 10 | –
COc1ncc2cc(C(=O)Nc3cc(C(=O)NC4(c5ccccc5)CCNCC4)ccc3Cl)c(=O)[nH]c2n1 [Example 166, N-(2-Chloro-5-(4-phenylpiperidin-4-ylcarbamoyl)phenyl)-2-methoxy-7-oxo-7,8-dihydropyrido[2,3-d]pyrimidine-6-carboxamide] | > 10 | 1.89 | – | – | –
COc1ncc2cc(C(=O)Nc3cc(C(=O)N[C@H](CCN)c4ccccc4)ccc3Cl)c(=O)[nH]c2n1 [Example 171, (R)—N-(5-(3-Amino-1-phenylpropylcarbamoyl)-2-chlorophenyl)-2-methoxy-7-oxo-7,8-dihydropyrido[2,3-d]pyrimidine-6-carboxamide] | – | 0.017 | – | 0.446 | –
COc1ncc2cc(C(=O)Nc3cc(C(=O)N[C@@H](CCN)c4ccccc4)ccc3Cl)c(=O)[nH]c2n1 [Example 176, (S)—N-(5-(3-Amino-1-phenylpropylcarbamoyl)-2-chlorophenyl)-2-methoxy-7-oxo-7,8-dihydropyrido[2,3-d]pyrimidine-6-carboxamide] | – | 1.15 | – | > 1 | –

— US20120184542A1, “PYRIDO PYRIMIDINES” (priority 2011, published 2012)
